According to patent publication US20150315188A1, “COMPOUNDS AND METHODS FOR TREATMENT OF HYPERTENSION” (MEDIVATION TECHNOLOGIES, INC., priority 2012, published 2015):

Key:
Set-up in all cases: purchased Milipore (Millipore)
[1] = target: T1, Human adrenergic α2A receptor (Homo sapiens, UniProt P08913); assay: Radioligand binding, adrenergic α2A (Protocol Group B); details: Protocol Group B; for Percentage inhibition of ligand binding, Adrenergic α2A (0.1 μM) / inhibition at 0.1 µM: 0.1 μM compound; for Percentage inhibition of ligand binding, Adrenergic α2A (0.3 μM) / inhibition at 0.3 µM: 0.3 μM compound; for inhibition at 0.3 µM: read-out: Percentage inhibition of ligand binding, Adrenergic α2A (0.3 μM); for inhibition at 0.1 µM: read-out: Percentage inhibition of ligand binding, Adrenergic α2A (0.1 μM)
T1 sequence (P08913 1-465): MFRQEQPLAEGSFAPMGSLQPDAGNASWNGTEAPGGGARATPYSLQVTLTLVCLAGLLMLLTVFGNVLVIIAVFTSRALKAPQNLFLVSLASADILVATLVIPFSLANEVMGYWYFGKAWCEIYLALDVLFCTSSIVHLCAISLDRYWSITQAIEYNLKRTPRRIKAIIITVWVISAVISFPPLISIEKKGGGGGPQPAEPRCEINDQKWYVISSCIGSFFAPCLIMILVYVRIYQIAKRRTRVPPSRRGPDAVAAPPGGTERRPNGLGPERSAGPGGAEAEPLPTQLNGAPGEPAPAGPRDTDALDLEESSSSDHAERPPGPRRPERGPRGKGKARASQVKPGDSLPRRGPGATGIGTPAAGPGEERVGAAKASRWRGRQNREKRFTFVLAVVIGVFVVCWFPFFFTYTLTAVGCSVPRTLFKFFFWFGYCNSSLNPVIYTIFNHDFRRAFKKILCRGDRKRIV
Method in brief: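 Compounds (1% DMSO vehicle, various concentrations) competed against 2 nM [^3H]MK-912 on recombinant receptor membranes for 60 min at 25° C, Tris-HCl pH 7.4 buffer with Mg2+, Ca2+, BSA. Bound radioligand filtered and counted; 10 μM rauwolscine set nonspecific binding. Values: percent inhibition of specific binding or estimated Ki.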

[2] = target: T2, Human adrenergic α1B receptor (Homo sapiens, UniProt P35368); assay: Radioligand binding, adrenergic α1B (Protocol Group B); details: Protocol Group B; for Percentage inhibition of ligand binding, Adrenergic α1B (0.1 μM) / inhibition at 0.1 µM: 0.1 μM compound; for Percentage inhibition of ligand binding, Adrenergic α1B (0.3 μM) / inhibition at 0.3 µM: 0.3 μM compound; for inhibition at 0.1 µM: read-out: Percentage inhibition of ligand binding, Adrenergic α1B (0.1 μM); for inhibition at 0.3 µM: read-out: Percentage inhibition of ligand binding, Adrenergic α1B (0.3 μM)
T2 sequence (P35368 1-520): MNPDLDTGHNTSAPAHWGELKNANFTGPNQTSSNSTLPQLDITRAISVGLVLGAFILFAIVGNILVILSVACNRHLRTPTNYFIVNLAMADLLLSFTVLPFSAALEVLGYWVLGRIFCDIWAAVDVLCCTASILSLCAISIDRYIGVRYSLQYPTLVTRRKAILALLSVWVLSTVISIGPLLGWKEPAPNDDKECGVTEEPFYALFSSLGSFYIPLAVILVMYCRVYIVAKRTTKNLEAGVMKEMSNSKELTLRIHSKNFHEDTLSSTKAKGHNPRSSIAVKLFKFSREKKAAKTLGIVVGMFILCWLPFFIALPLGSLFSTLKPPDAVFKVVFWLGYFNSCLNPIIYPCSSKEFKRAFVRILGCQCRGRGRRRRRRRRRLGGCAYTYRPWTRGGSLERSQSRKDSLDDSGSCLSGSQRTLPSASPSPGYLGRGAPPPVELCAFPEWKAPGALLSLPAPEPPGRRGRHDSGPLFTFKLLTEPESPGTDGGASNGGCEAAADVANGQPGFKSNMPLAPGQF
Method in brief: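 Values are percent inhibition of specific [3H]prazosin (0.3 nM) binding or estimated Ki, from filtration counting. Human α1B recombinant membranes, Tris-HCl pH 7.4 buffer with MgCl2 and EDTA, 60 min at 25 °C, 1% DMSO vehicle; 10 μM prazosin defined nonspecific binding.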

[3] = target: T3, Human adrenergic α2B receptor (Homo sapiens, UniProt P18089); assay: Radioligand binding, adrenergic α2B (Protocol Group B); details: Protocol Group B; for Percentage inhibition of ligand binding, Adrenergic α2B (10 nM) / inhibition at 0.01 µM: 10 nM compound; for Percentage inhibition of ligand binding, Adrenergic α2B (10 nM): 0.01 µM; for Percentage inhibition of ligand binding, Adrenergic α2B (30 nM) / inhibition at 0.03 µM: 30 nM compound; for Percentage inhibition of ligand binding, Adrenergic α2B (30 nM): 0.03 µM; for Percentage inhibition of ligand binding, Adrenergic α2B (0.1 μM) / inhibition at 0.1 µM: 0.1 μM compound; for inhibition at 0.01 µM: read-out: Percentage inhibition of ligand binding, Adrenergic α2B (10 nM); for inhibition at 0.03 µM: read-out: Percentage inhibition of ligand binding, Adrenergic α2B (30 nM); for inhibition at 0.1 µM: read-out: Percentage inhibition of ligand binding, Adrenergic α2B (0.1 μM)
T3 sequence (P18089 1-450): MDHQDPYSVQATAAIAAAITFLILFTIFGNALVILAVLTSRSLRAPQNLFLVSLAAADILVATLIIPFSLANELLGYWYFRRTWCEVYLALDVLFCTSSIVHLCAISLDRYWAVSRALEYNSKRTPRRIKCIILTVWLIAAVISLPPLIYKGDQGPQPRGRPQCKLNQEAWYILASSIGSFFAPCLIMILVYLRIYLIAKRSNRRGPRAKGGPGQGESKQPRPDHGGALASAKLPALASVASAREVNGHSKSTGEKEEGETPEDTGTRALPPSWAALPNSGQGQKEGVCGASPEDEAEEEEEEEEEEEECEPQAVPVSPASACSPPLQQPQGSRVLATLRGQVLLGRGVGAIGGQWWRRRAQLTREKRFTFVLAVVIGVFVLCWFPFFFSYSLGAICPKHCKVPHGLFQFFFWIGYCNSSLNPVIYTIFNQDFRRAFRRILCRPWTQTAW
Method in brief: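 Compounds at various concentrations in 1% DMSO were tested on recombinant membranes in Tris-HCl pH 7.4 buffer containing MgCl2, CaCl2 and 0.2% BSA.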

SMILES	Percentage inhibition of ligand binding, Adrenergic α2A (0.1 μM) [1]	Percentage inhibition of ligand binding, Adrenergic α2A (0.3 μM) [1]	Percentage inhibition of ligand binding, Adrenergic α1B (0.1 μM) [2]	Percentage inhibition of ligand binding, Adrenergic α1B (0.3 μM) [2]	Percentage inhibition of ligand binding, Adrenergic α2B (10 nM) [3]	Percentage inhibition of ligand binding, Adrenergic α2B (30 nM) [3]	Percentage inhibition of ligand binding, Adrenergic α2B (0.1 μM) [3]	inhibition at 0.3 µM [1]	inhibition at 0.1 µM [2]	inhibition at 0.3 µM [2]	inhibition at 0.01 µM [3]	inhibition at 0.03 µM [3]	inhibition at 0.1 µM [1]	inhibition at 0.1 µM [3]
CC(O)(Cn1c2c(c3cc(F)ccc31)C1CCCN1CC2)c1ccncc1 (single isomer, unassigned) [31d]	−11%	6%	0%	11%	4%	−11%	17%	–	–	–	–	–	–	–
Cc1cc(F)cc2c3c(n(CC(C)(O)c4cccnc4)c12)CC1CCCN1C3 (single isomer, unassigned) [76c]	19%	18%	19%	33%	−3%	−3%	–	–	–	–	–	–	–	–
Cc1ccc2c(c1)c1c(n2CC(OC(N)=O)c2ccncc2)CCN(C)C1 (single isomer, unassigned) [8b]	7%	–	–	–	–	–	26%	10%	9%	14%	13%	27%	–	–
Cc1cc2c3c(n(CC(C)(O)c4ccncc4)c2cc1Cl)CCN1CCCC31 (single isomer, unassigned) [50d]	−9%	−4%	−8%	4%	−8%	−2%	13%	–	–	–	–	–	–	–
Cc1ccc2c(c1)c1c(n2CC(C)(O)c2cccnc2)CC2CCCN2C1 (centres unmarked) [38a]	−2%	11%	14%	21%	−2%	11%	30%	–	–	–	–	–	–	–
Cc1ccc2c(c1)c1c(n2CC(C)(O)c2cccnc2)CC2CCCN2C1 (centres unmarked) [41d]	−7%	13%	−2%	−1%	9%	21%	48%	–	–	–	–	–	–	–
Cc1cc(F)cc2c3c(n(CC(C)(O)c4cccnc4)c12)CC1CCCN1C3 (single isomer, unassigned) [76b]	5%	0%	4%	3%	11%	5%	20%	–	–	–	–	–	–	–
CN1CCc2c(c3cccc(Cl)c3n2CC(O)c2cccnc2)C1 (centres unmarked) [compound 20, 2-(6-chloro-2-methyl-3,4-dihydro-1H-pyrido[4,3-b]indol-5-(2H)-yl)-1-(pyridin-3-yl)ethanol]	–	–	–	–	–	–	–	23%	10%	15%	6%	35%	12%	54%
Cc1ccc2c(c1)c1c(n2CC(C)(O)c2ccc(F)cc2)CC2CCC1N2C (single isomer, unassigned) [102c]	−12%	−5%	−4%	5%	−14%	−5%	−8%	–	–	–	–	–	–	–
Cc1cc(C)c2c(c1)c1c(n2CC(C)(O)c2cccnc2)CCN2CCCC12 (single isomer, unassigned) [44c]	1%	4%	7%	4%	−9%	0%	–	–	–	–	–	–	–	–
Cc1cc(Cl)c2c(c1)c1c(n2CC(O)c2ccncc2)CCN2CCCC12 (single isomer, unassigned) [142b]	95%	–	76%	–	–	100%	–	–	–	–	–	–	–	–
Cc1ccc2c(c1)c1c(n2CC(O)c2cc[n+]([O-])cc2)CCN2CCCC12 (centres unmarked) [compound 22, 4-(1-hydroxy-2-(10-methyl-2,3,5,6-tetrahydro-1H-indolizino[7,8-b]indol-7 (11cH)-yl)ethyl)pyridine 1-oxide]	–	–	–	–	–	–	–	15%	11%	30%	30%	61%	7%	72%
CC(O)(Cn1c2c(c3cc(Cl)cc(F)c31)C1CCCN1CC2)c1cccnc1 (single isomer, unassigned) [53c]	−10%	−15%	1%	−6%	−4%	4%	1%	–	–	–	–	–	–	–
CC(O)(Cn1c2c(c3cc(C(F)(F)F)ccc31)C1CCCN1CC2)c1cccnc1 (single isomer, unassigned) [64a]	37%	61%	18%	–	73%	91%	–	–	–	47%	–	–	–	96%
